Experimental data reported in US5583115A, “Dialkyltiacumicin compounds” (Abbott Laboratories, priority 1995, dated 1996).
In brackets after ≈: the same amount, converted by molar mass. Where two headings read alike, the source gives them in different places.

Assays:
[1] = system: Bacteriodes fragilis; assay: MIC agar dilution, anaerobic bacteria; format: cell-based; details: 20 h
[2] = system: B. vulgatus; assay: MIC agar dilution, anaerobic bacteria; format: cell-based
[3] = system: B. disiens; assay: MIC agar dilution, anaerobic bacteria; format: cell-based; details: Prevotella disiens, 20 h
[4] = system: B. thetaiotaomicron; assay: MIC agar dilution, anaerobic bacteria; format: cell-based
[5] = system: B. loescheii; assay: MIC agar dilution, anaerobic bacteria; format: cell-based; details: Hoylesella loescheii, 20 h
[6] = system: B. bivius; assay: MIC agar dilution, anaerobic bacteria; format: cell-based; details: Prevotella bivia, 20 h
[7] = system: Fusobacterium nucleatum; assay: MIC agar dilution, anaerobic bacteria; format: cell-based; details: Fusobacterium nucleatum, 20 h
[8] = system: Fusobacterium species; assay: MIC agar dilution, anaerobic bacteria; format: cell-based; details: Fusobacterium, 20 h
[9] = system: Veillonella parvula; assay: MIC agar dilution, anaerobic bacteria; format: cell-based; details: Veillonella parvula, 20 h
[10] = system: Propionibacterium acnes; assay: MIC agar dilution, anaerobic bacteria; format: cell-based; details: Cutibacterium acnes, 20 h
[11] = system: Peptostreptococcus asaccharolyticus; assay: MIC agar dilution, anaerobic bacteria; format: cell-based; details: Peptoniphilus asaccharolyticus, 20 h
[12] = system: P. magnus; assay: MIC agar dilution, anaerobic bacteria; format: cell-based; details: Finegoldia magna, 20 h
[13] = system: P. species; assay: MIC agar dilution, anaerobic bacteria; format: cell-based; details: 20 h; Culture # 1776; read-out: MIC
[14] = system: P. anaerobius; assay: MIC agar dilution, anaerobic bacteria; format: cell-based; details: Peptostreptococcus anaerobius, 20 h
[15] = system: Clostridium perfringens; assay: microbe, parasite or virus in culture; format: cell-based; details: Clostridium perfringens, 20 h
[16] = system: C. ramosum; assay: MIC agar dilution, anaerobic bacteria; format: cell-based; details: Thomasclavelia ramosa, 20 h
[17] = system: C. difficile; assay: MIC agar dilution, anaerobic bacteria; format: cell-based; details: Clostridioides difficile, 20 h
[18] = system: E. coli; assay: MIC agar dilution, aerobic and facultative bacteria; format: cell-based; details: Escherichia coli, 20 h, read-out: MIC
[19] = system: Clostridium difficile; assay: In vivo hamster model of pseudomembranous Clostridium difficile induced colitis; details: for % Mortality: days 8-14, expiring by day 20
Experimental: (Suppression of normal gastrointestinal bacteria by the ciprofloxacin permitted the drug-resistant C. difficile to predominate.) Five additional hamsters were segregated as a noninfected control group.
The infected animals were divided into three groups comprising (a) 10 untreated animals; (b) 15 vancomycin-treated animals (5 each at 20, 10 and 1 mg/kg/day orally on days 8-14); and (c) 10 animals treated with the compound of Example 2 (5 each at 10 and 1 mg/kg/day on days 8-14). The subject animals were monitored for (a) body weight (infected hamsters lose significant body mass), and (b) mortality (percent expiring by day 20).

[20] = system: Staphylococcus aureus; assay: MIC agar dilution, aerobic and facultative bacteria; details: Staphylococcus aureus, 20 h
[21] = system: S. epidermidis; assay: as above; details: Staphylococcus epidermidis, 20 h
[22] = system: Enterococcus faecium; assay: as above; details: Enterococcus faecium, 20 h
[23] = system: Streptococcus bovis; assay: as above; details: Streptococcus equinus, 20 h
[24] = system: Streptococcus agalactiae; assay: as above; details: Streptococcus agalactiae, 20 h
[25] = system: S. pyogenes; assay: as above; details: Streptococcus pyogenes, 20 h
[26] = system: Micrococcus luteus; assay: as above; details: Micrococcus luteus, 20 h
[27] = system: Enterobacter aerogenes; assay: as above; details: Klebsiella aerogenes, 20 h
[28] = system: Klebsiella pneumoniae; assay: as above; details: Klebsiella pneumoniae, 20 h
[29] = system: Providencia stuartii; assay: as above; details: Providencia stuartii, 20 h
[30] = system: Pseudomonas aeruginosa; assay: as above
[31] = system: P. cepacia; assay: as above; details: Burkholderia cepacia, 20 h
[32] = system: Acinetobacter calcoaceticus; assay: as above; details: Acinetobacter calcoaceticus, 20 h
[33] = Bacteroides thetaiotaomicron, 20 h, Culture # 1764, read-out: MIC

SMILES: CCC[C@@H]1C[C@@H](C(=O)N[C@@H]([C@H]2O[C@H](SC)[C@H](O)[C@@H](O)[C@H]2O)[C@H](C)Cl)N(C)C1 [Clindamycin]
- MIC ([1]; Culture # 1756, Wilkins-Chalgren agar, 37° C., 48 hours, read-out: MIC): 1 µg/mL (≈ 2.35 µM)
- MIC ([1]; Culture # 1757, read-out: MIC): 1 µg/mL (≈ 2.35 µM)
- MIC ([1]; Culture # 1758, read-out: MIC): 0.5 µg/mL (≈ 1.18 µM)
- MIC ([1]; Culture # 1999, read-out: MIC): 1 µg/mL (≈ 2.35 µM)
- MIC ([2]; Culture # 2481): 0.03 µg/mL (≈ 0.0706 µM)
- MIC ([2]; Phocaeicola vulgatus, 20 h, Culture # 1762, read-out: MIC): 0.03 µg/mL (≈ 0.0706 µM)
- MIC ([3]; Culture # 1763, read-out: MIC): 0.015 µg/mL (≈ 0.0353 µM)
- MIC [4, 33]: 4 µg/mL (≈ 9.41 µM)
- MIC ([4]; Culture # 1765): 4 µg/mL (≈ 9.41 µM)
- MIC ([4]; Culture # 1766): 4 µg/mL (≈ 9.41 µM)
- MIC ([5]; Culture # 1767, read-out: MIC): 0.06 µg/mL (≈ 0.141 µM)
- MIC ([6]; Culture # 2483, read-out: MIC): 0.015 µg/mL (≈ 0.0353 µM)
- MIC ([7]; Culture # 2478, read-out: MIC): 0.12 µg/mL (≈ 0.282 µM)
- MIC ([8]; Culture # 1770, read-out: MIC): 0.12 µg/mL (≈ 0.282 µM)
- MIC ([9]; Culture # 2479, read-out: MIC): 0.06 µg/mL (≈ 0.141 µM)
- MIC ([10]; Culture # 1775, read-out: MIC): 0.06 µg/mL (≈ 0.141 µM)
- MIC ([11]; Culture # 1777, read-out: MIC): 0.03 µg/mL (≈ 0.0706 µM)
- MIC ([12]; Culture # 1778, read-out: MIC): 1 µg/mL (≈ 2.35 µM)
- MIC [13]: 0.06 µg/mL (≈ 0.141 µM)
- MIC ([14]; Culture # 1780, read-out: MIC): 0.06 µg/mL (≈ 0.141 µM)
- MIC ([15]; Culture # 1771): 0.06 µg/mL (≈ 0.141 µM)
- MIC ([15]; Culture # 1772): 0.5 µg/mL (≈ 1.18 µM)
- MIC ([15]; Culture # 1773): 0.06 µg/mL (≈ 0.141 µM)
- MIC ([16]; Culture # 2482, read-out: MIC): 1 µg/mL (≈ 2.35 µM)
- MIC ([17]; Culture # 1496, read-out: MIC): > 32 µg/mL
- MIC ([17]; Culture # 1497, read-out: MIC): > 32 µg/mL
- MIC ([17]; Culture # 1774, read-out: MIC): 0.5 µg/mL (≈ 1.18 µM)
- MIC ([17]; Culture # 2025, read-out: MIC): 4 µg/mL (≈ 9.41 µM)
- MIC ([17]; Culture # 2480, read-out: MIC): 4 µg/mL (≈ 9.41 µM)
- MIC ([17]; Culture # 2528, read-out: MIC): 4 µg/mL (≈ 9.41 µM)
- MIC ([17]; Culture # 2529, read-out: MIC): 4 µg/mL (≈ 9.41 µM)

SMILES: CN[C@H](CC(C)C)C(=O)N[C@H]1C(=O)N[C@@H](CC(N)=O)C(=O)N[C@H]2C(=O)N[C@H]3C(=O)N[C@H](C(=O)N[C@H](C(=O)O)c4cc(O)cc(O)c4-c4cc3ccc4O)[C@H](O)c3ccc(c(Cl)c3)Oc3cc2cc(c3O[C@@H]2O[C@H](CO)[C@@H](O)[C@H](O)[C@H]2O[C@H]2C[C@](C)(N)[C@H](O)[C@H](C)O2)Oc2ccc(cc2Cl)[C@H]1O [Vancomycin]
- MIC ([18]; DC-2, Culture # 1674): > 200 µg/mL
- MIC ([18]; H560, Culture # 1675): > 200 µg/mL
- MIC ([18]; Juhl, Culture # 1673): > 200 µg/mL
- MIC ([18]; KNK437, Culture # 1676): > 200 µg/mL
- MIC ([18]; SS, Culture # 2489): 50 µg/mL (≈ 34.5 µM)
- MIC ([1]; Culture # 1756, Wilkins-Chalgren agar, 37° C., 48 hours): 32 µg/mL (≈ 22.1 µM)
- MIC ([1]; Culture # 1757): 32 µg/mL (≈ 22.1 µM)
- MIC ([1]; Culture # 1758): 16 µg/mL (≈ 11 µM)
- MIC ([2]; Phocaeicola vulgatus, 20 h, Culture # 2481): 64 µg/mL (≈ 44.2 µM)
- MIC ([2]; Phocaeicola vulgatus, 20 h, Culture # 1762): 32 µg/mL (≈ 22.1 µM)
- MIC [3]: 32 µg/mL (≈ 22.1 µM)
- MIC [4, 33]: > 64 µg/mL
- MIC ([4]; Culture # 1765): > 64 µg/mL
- MIC ([4]; Culture # 1766): > 64 µg/mL
- MIC [5]: 32 µg/mL (≈ 22.1 µM)
- MIC [6]: 32 µg/mL (≈ 22.1 µM)
- MIC [7]: > 64 µg/mL
- MIC [8]: > 64 µg/mL
- MIC [9]: > 64 µg/mL
- MIC [10]: 0.5 µg/mL (≈ 0.345 µM)
- MIC [11]: 1 µg/mL (≈ 0.69 µM)
- MIC [12]: 0.5 µg/mL (≈ 0.345 µM)
- MIC [13]: 1 µg/mL (≈ 0.69 µM)
- MIC [14]: 0.5 µg/mL (≈ 0.345 µM)
- MIC ([15]; Culture # 1771): > 64 µg/mL
- MIC ([15]; Culture # 1772): 0.5 µg/mL (≈ 0.345 µM)
- MIC ([15]; Culture # 1773): 1 µg/mL (≈ 0.69 µM)
- MIC [16]: 8 µg/mL (≈ 5.52 µM)
- MIC ([17]; Culture # 1496): 0.5 µg/mL (≈ 0.345 µM)
- MIC ([17]; Culture # 1497): 0.5 µg/mL (≈ 0.345 µM)
- MIC ([17]; Culture # 1774): 2 µg/mL (≈ 1.38 µM)
- MIC ([17]; Culture # 2025): 0.5 µg/mL (≈ 0.345 µM)
- MIC ([17]; Culture # 2480): > 64 µg/mL
- MIC ([17]; Culture # 2528): 1 µg/mL (≈ 0.69 µM)
- MIC ([17]; Culture # 2529): 1 µg/mL (≈ 0.69 µM)
- rapidity of mortality ([19]; 1 mg/kg versus 10 or 20 mg/kg): more rapid mortality than hamsters treated at 10 or 20 mg/kg
- % Mortality ([19]; 1 mg/kg/day): 100%
- % Mortality ([19]; 10 mg/kg/day): 100%
- % Mortality ([19]; 20 mg/kg/day, orally): 100%
- MIC ([20]; Culture # 1662, brain heart infusion agar, 37° C.): 3.1 µg/mL (≈ 2.14 µM)
- MIC ([20]; Culture # 1664): 1.56 µg/mL (≈ 1.08 µM)
- MIC ([20]; Culture # 1690): 1.56 µg/mL (≈ 1.08 µM)
- MIC ([20]; Culture # 2124): 3.1 µg/mL (≈ 2.14 µM)
- MIC ([20]; Culture # 2130): 3.1 µg/mL (≈ 2.14 µM)
- MIC ([20]; Culture # 2498): 3.1 µg/mL (≈ 2.14 µM)
- MIC ([20]; cipro res., Culture # 3384): 1.56 µg/mL (≈ 1.08 µM)
- MIC [21]: 3.1 µg/mL (≈ 2.14 µM)
- MIC [22]: 3.1 µg/mL (≈ 2.14 µM)
- MIC [23]: 0.78 µg/mL (≈ 0.538 µM)
- MIC [24]: 3.1 µg/mL (≈ 2.14 µM)
- MIC ([25]; Culture # 1671): 3.1 µg/mL (≈ 2.14 µM)
- MIC ([25]; const., Culture # 1672): 0.78 µg/mL (≈ 0.538 µM)
- MIC ([25]; inducible, Culture # 2548): 0.78 µg/mL (≈ 0.538 µM)
- MIC ([26]; Culture # 2493): 0.78 µg/mL (≈ 0.538 µM)
- MIC ([26]; Culture # 2517): 3.1 µg/mL (≈ 2.14 µM)
- MIC [27]: > 200 µg/mL
- MIC [28]: > 200 µg/mL
- MIC [29]: > 200 µg/mL
- MIC ([30]; Culture # 1680): > 200 µg/mL
- MIC ([30]; Culture # 1681): > 200 µg/mL
- MIC ([30]; Culture # 1682): > 200 µg/mL
- MIC ([30]; Pseudomonas aeruginosa, 20 h): > 200 µg/mL
- MIC ([30]; cipro R, Culture # 1919): > 200 µg/mL
- MIC ([30]; cipro R, Culture # 1920): > 200 µg/mL
- MIC [31]: > 200 µg/mL
- MIC [32]: > 200 µg/mL
